# Results as given in patent publication US20240059658A1 (Emory University, priority 2019, published 2024).
# pIC50: −log10 of the molar value.
# Tests used:
# [1] = test system: human normal bone marrow mononuclear (NBMM) cells; assay: Clonogenic assay for CFU-GM and BFU-E (normal hematopoiesis); type: cell-based; details: 1 μM, 14 days
# Description: For colony formation of normal human hematopoiesis assay, a bottom layer of low-melting-point, 0.5% agarose (in RPMI 1640 medium plus 10% FBS) was poured into gridded 35 mm dishes and allowed to gel. Cells were cultured in a top layer of 0.35% agarose/medium at 37° C. in a humidified atmosphere containing 5% CO2. After 2-3 weeks, cultures were fixed with formalin and colonies scored.
# EU-1 = assay: WST cytotoxicity assay, cancer cell EU-1; type: cell-based, human; details: Homo sapiens, EU-1, EU-1; no other cell line named in the cell; read-out: Cancer cell (EU-1) cytotoxicity IC50
# How it was run: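 Pediatric ALL and NB lines grown in RPMI 1640 with 10% FBS at 37 °C, 5% CO2. Cells were exposed to a range of compound concentrations for 20 h, then WST (25 μg/well) was added for a further 4 h. OD read at 450 nm against a 620 nm reference.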
# MDM2 RING protein [2] = target: T1, MDM2 RING protein (Homo sapiens, UniProt Q00987); details: Gu et al. Cancer Cell 2016; cited from earlier work
# normal cells/tissues = details: Gu et al. Cancer Cell 2016; cited from earlier work
# in vivo = details: mouse
# 855 line = assay: WST cytotoxicity assay, 855 line; type: cell-based; details: read-out: Cancer cell cytotoxicity IC50
# Description: (§1) The cytotoxic effect of MX 69 and MX69 analogs on cancer cells was determined using the water-soluble tetrazolium salt (WST) assay. Briefly, cells cultured in 96-well microtiter plates were treated with different concentrations of AQ-101 for a 20-h period. WST (25 μg/well) was then added and incubation continued for an additional 4 h, after which optical density (OD) was read with a microplate reader (test wavelength of 450 nm; reference wavelength of 620 nm).
# NB-1643 = assay: WST cytotoxicity assay, NB-1643; type: cell-based; details: Homo sapiens; NB-1643 line; read-out: Cancer cell cytotoxicity IC50
# Description: This study used two ALL cell lines (EU-1 and EU-3) and three NB cell lines (NB-1643, SHEP1 and LA1-55N). All 5 cancer cell lines were established from pediatric ALL or NB patients and were well-characterized for their expression of MDM2 and p53-status, as reported previously. All cell lines were grown in standard culture medium (RPMI 1640 containing 10% FBS, 2 mmol/L L-glutamine, 50 U penicillin and 50 μg/mL streptomycin) at 37° C. in a humidified atmosphere containing 5% CO2.
# as §1
# MDM2 = target: T2, MDM2 (Homo sapiens, UniProt Q00987); assay: MDM2 reduction / expression (Western blot); type: cell-based; details: words or +/− grades, key not given
# T2 construct: ubiquitination of endogenous MDM2 in EU-1 cells; endogenous in cells; host or cells: EU-1 (ALL) cells
# Description: (§2) Cells were lysed in a buffer composed of 50 mM Tris, pH 7.6, 150 mM NaCl, 1% Nonidet P-40, 10 mM sodium phosphate, 10 mM NaF, 1 mM sodium orthovanadate, 2 mM phenylmethylsulfonyl fluoride (PMSF), […], 10 μg/mL leupeptin and 10 μg/mL pepstatin. After centrifugation, the clarified cell lysate was separated from the pellet of cell debris, and then incubated with 15 μL Protein G/Protein A-agarose and 1 μg of antibodies, overnight at 4° C. For the Western blot, the resulting cell lysates or immunoprecipitates were resolved by SDS-PAGE. They were then transferred to a nitrocellulose filter and probed with the specific antibodies as listed in the supplemental Materials section. Finally, proteins were visualized with a chemiluminescent detection system.
# p53 = p53 induction / expression (Western blot); type: cell-based; details: words or +/− grades, key not given
# Description: as §2
# MDM2 RING protein [3] = target: T1, MDM2 RING protein; assay: Compound-protein binding (ITC) to MDM2 RING protein; details: MDM2 RING domain
# Description: Isothermal titration calorimetry (ITC) assay was performed using the auto-iTC200 instrument (MicroCal, GE). MDM2 protein was loaded into a 96 DeepWell PP plate, and then compound was titrated stepwise into the protein sample cell using a syringe, for a total of 16 injections (except for the first injection, which was 0.4 μl). The equilibrium time between two adjacent injections was 210 s. The binding stoichiometry (n), binding constant (Kd), and thermodynamic parameters (ΔH and ΔS) were determined by fitting the titration curve to a one-site binding mode, using the Origin software provided by the manufacturer.
# 697 cell line = assay: WST cytotoxicity assay, 697 cell line; type: cell-based; details: read-out: Cancer cell cytotoxicity IC50
# Description: as §1
# caspases-3, -9 and PARP = assay: Western blot, cleavage of caspases-3, -9 and PARP in EU-1 cells; type: cell-based
# Description: as §2
# T2 sequence (Q00987 whole entry): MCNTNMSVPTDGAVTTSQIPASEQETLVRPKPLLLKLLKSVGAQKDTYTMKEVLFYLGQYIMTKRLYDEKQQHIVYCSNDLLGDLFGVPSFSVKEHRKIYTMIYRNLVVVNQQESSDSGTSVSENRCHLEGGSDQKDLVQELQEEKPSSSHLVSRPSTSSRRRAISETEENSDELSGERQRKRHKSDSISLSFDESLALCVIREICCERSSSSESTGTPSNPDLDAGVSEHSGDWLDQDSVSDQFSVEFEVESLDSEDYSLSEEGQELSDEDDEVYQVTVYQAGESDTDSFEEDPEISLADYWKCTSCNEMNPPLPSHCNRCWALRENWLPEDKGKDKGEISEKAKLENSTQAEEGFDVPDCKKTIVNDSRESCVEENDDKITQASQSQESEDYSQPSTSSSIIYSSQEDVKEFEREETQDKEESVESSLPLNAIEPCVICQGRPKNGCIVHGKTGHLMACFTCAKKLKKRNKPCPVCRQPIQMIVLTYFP
# T1 sequence (Q00987 438-479 limits assumed): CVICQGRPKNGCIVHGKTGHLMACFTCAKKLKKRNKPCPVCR
SMILES,MTD (in vivo),pIC50 (855 line),pIC50 (NB-1643),MDM2 reduction (MDM2),pIC50 (697 cell line),also measured
"COc1cccc2c1C(=O)c1c(O)c3c(c(O)c1C2=O)C[C@@](O)(C(=O)CO)C[C@@H]3O[C@H]1C[C@H](N)[C@H](O)[C@H](C)O1 [Dox, doxorubicin]",,,,,,BFU-E colony numbers and size [1]: significantly reduced; CFU-GM colony numbers and size [1]: significantly reduced
"Cc1ccc(NS(=O)(=O)c2ccc3c(c2)[C@H]2C=CC[C@H]2[C@H](c2ccc(C(=O)O)cc2)N3)cc1C [MX69, reference compound]",200 mg/kg,,,,,pIC50 (EU-1): 5.15; Binding to the RING domain of MDM2 (MDM2 RING protein [2]): specifically binds to the RING domain of MDM2; Toxicity on normal cells/tissues (normal cells/tissues): minimal toxicity
COC(=O)c1ccc(C2Nc3ccc(S(=O)(=O)Nc4ccc(C)c(C)c4)cc3[C@H]3OCC[C@@H]23)cc1 (some centres unmarked) [Compound 69L1],300 mg/kg,,,,,pIC50 (EU-1): 5.22 to 5.82
"Cc1ccc(NS(=O)(=O)c2ccc3c(c2)C2OCC[C@H]2[C@H](C2CCCCC2)N3)cc1C (some centres unmarked) [Compound 69L53, 4-cyclohexyl-N-(3,4-dimethylphenyl)-2,3,3a,4,5,9b-hexahydrofuran[3,2-c]quinolone-8-sulfonamine]",300 mg/kg,6.10,5.76,inhibition,,p53 induction (p53): induction; MDM2 binding affinity as compared with MX69 (MDM2 RING protein [3]): Increased MDM2 Binding Affinity
"O=S(=O)(Nc1ccc(Cl)c(Cl)c1)c1ccc2c(c1)C1OCC[C@H]1[C@H](C1CCCCC1)N2 (some centres unmarked) [Compound 69L60, 4-cyclohexyl-N-(3,4-dichlorophenyl)-2,3,3a,4,5,9b-hexahydrofuran[3,2-c]quinolone-8-sulfonamine]",,5.74,5.25,Increase,5.56,
Cc1ccc(NS(=O)(=O)c2ccc3c(c2)C2OCCC2C(c2ccc(C(=O)C(C)C)cc2)N3)cc1C (centres unmarked) [McX69-102],,,,,,"Time after treatment at which cleavage of caspases-3, -9 and PARP can be detected (caspases-3, -9 and PARP): 8 h"
Cc1ccc(NS(=O)(=O)c2ccc3c(c2)C2OCC[C@H]2C2(CCCCC2)N3)cc1C (some centres unmarked) [Compound 69L62],,6.01,5.89,No MDM2,6.31,
Cc1ccc(NS(=O)(=O)c2ccc3c(c2)C2OCC[C@H]2C(c2cccc4ccccc24)N3)cc1C (some centres unmarked) [Compound 69L63],,5.22,,,5.40,p53 induction (p53): induction
